From patent US10899732B2, “Substituted benzamides useful as sodium channel blockers” (GENENTECH, INC., priority 2015, dated 2021)
Where a name gives a salt, the structure may show the parent alone.

Tests used:
hNav1.7 = target: T1, hNav1.7 (Homo sapiens, UniProt Q15858); experiment: Tritiated sulfonamide competitive binding to membranes from cells expressing hNav1.7 and the β1 subunit (LBA); details: competition with 100 pM [3H]compound, 18 h, room temperature; read-out: Nav1.7 (LBA)
T1 construct: expressed in transfected cells
Description: Tritiated Sulfonamide Binding to Membranes Isolated from Cells that Heterologously Express hNav1.7 and the β1 Subunit
Preparation of membranes containing recombinantly expressed sodium channels: Frozen recombinant cell pellets were thawed on ice and diluted to 4 times the cell pellet weight with ice cold 50 mM Tris HCl, pH 7.4 buffer. The cell suspensions were homogenized on ice using a motorized glass dounce homogenizer. Homogenates were further diluted 8.4 times with ice cold 50 mM Tris HCl, pH 7.4 buffer and then centrifuged at 200×g at 4° C. for 15 min. The supernatants were collected and centrifuged at 10000×g at 4° C. for 50 min. The pellets were then re-suspended in 100 mM NaCl, 20 mM Tris HCl, pH 7.4 buffer containing 1% v/v protease inhibitors (Calbiochem) and re-homogenized on ice. The homogenized membranes were then processed through a syringe equipped with a 26 gauge needle. Protein concentrations were determined by Bradford Assay and the membranes were stored at −80° C.
Saturation experiments. A competitive NaV1.7 inhibitor having a methyl group was tritiated. Three tritiums were incorporated in place of methyl hydrogens to generate [^3H]compound. Binding of this radioligand was preformed in 5 mL borosilicate glass test tubes at room temperature. Binding was initiated by adding membranes to increasing concentrations of [^3H]compound in 100 mM NaCl, 20 mM Tris HCl, pH 7.4 buffer containing 0.01% w/v bovine serum albumin (BSA) for 18 h. Non-specific binding was determined in the presence of 1 μM unlabelled compound. After 18 h, the reactants were filtered through GF/C glass fiber filters presoaked in 0.5% w/v polyethylene imine. Filters were washed with 15 mL ice cold 100 mM NaCl, 20 mM Tris HCl, pH 7.4 buffer containing 0.25% BSA to separate bound from free ligand. [^3H]compound bound to filters was quantified by liquid scintillation counting.
Binding reactions were performed in 96-well polypropylene plates at room temperature for 18 h. In 360 μL, membranes were incubated with 100 pM [^3H]compound and increasing concentrations of Test Compound. Non-specific binding was defined in the presence of 1 μM unlabelled compound. Reactions were transferred and filtered through 96-well glass fiber/C filter plates presoaked with 0.5% polyethylene imine. The filtered reactions were washed 5 times with 200 μL ice cold buffer containing 0.25% BSA. Bound radioactivity was determined by liquid scintillation counting.
Data Analysis: For saturation experiments, non-specific binding was subtracted from total binding to provide specific binding and these values were recalculated in terms of pmol ligand bound per mg protein. Saturation curves were constructed and dissociation constants were calculated using the single site ligand binding model: Beq=(Bmax*X)/(X+Kd), where Beq is the amount of ligand bound at equilibrium, Bmax is the maximum receptor density, Kd is the dissociation constant for the ligand, and X is the free ligand concentration. For competition studies percent inhibition was determined and IC50 values were calculated using a 4 parameter logistic model (% inhibition=(A+((B−A)/(1+((x/C)^D)))) using XLfit, where A and B are the maximal and minimum inhibition respectively, C is the IC50 concentration and D is the (Hill) slope.

NaV1.7 = target: T2, NaV1.7 (Homo sapiens, UniProt Q15858); experiment: Patch voltage clamp electrophysiology assay (EP), NaV1.7 in HEK-293 cells; type: cell-based; details: HEK-293, β1 coexpressed, held at -60 mV (inactivated state)
T2 construct: expression vector containing the full-length cDNA coding for the desired human sodium channel α-subunit; expressed in transfected cells; host or cells: HEK-293
Source text: (§1) Electrophysiological Assay (EP) (In Vitro Assay)
(§2) Patch voltage clamp electrophysiology allows for the direct measurement and quantification of block of voltage-gated sodium channels (NaV's), and allows the determination of the time- and voltage-dependence of block which has been interpreted as differential binding to the resting, open, and inactivated states of the sodium channel (Hille, B., Journal of General Physiology (1977), 69: 497-515).
(§3) The following patch voltage clamp electrophysiology studies were performed on representative compounds of the invention using human embryonic kidney cells (HEK), permanently transfected with an expression vector containing the full-length cDNA coding for the desired human sodium channel α-subunit, grown in culture media containing 10% FBS, 1% PSG, and 0.5 mg/mL G418 at 37° C. with 5% CO2. […] NaV1.7 and NaV1.5 cDNAs (NM_002977 and AC137587; SCN5A, respectively) were stably expressed in HEK-293 cells. The β1 subunit was coexpressed in both the NaV1.7 and NaV1.5 cell lines.
(§4) Sodium currents were measured using the patch clamp technique in the whole-cell configuration using either a PatchXpress automated voltage clamp or manually using an Axopatch 200B (Axon Instruments) or Model 2400 (A-M systems) amplifier. The manual voltage clamp protocol was as follows: Borosilicate glass micropipettes were fire-polished to a tip diameter yielding a resistance of 2-4 Mohms in the working solutions. The pipette was filled with a solution comprised of: 5 mM NaCl, 10 mM CsCl, 120 mM CsF, 0.1 mM CaCl2, 2 mM MgCl2, 10 mM HEPES, 10 mM EGTA; and adjusted to pH 7.2 with CsOH. The external solution had the following composition: 140 mM NaCl, 5 mM KCl, 2 mM CaCl2, 1 mM MgCl2, 10 mM HEPES; and adjusted to pH 7.4 with NaOH. In some studies, the external sodium was reduced by equimolar replacement with choline. Osmolarity in the CsF internal and NaCl external solutions was adjusted to 300 mOsm/kg and 310 mOsm/kg with glucose, respectively. All recordings were performed at ambient temperature in a bath chamber with a volume of 150 μL. Control sodium currents were measured in 0.5% DMSO. Controls and representative compounds of the invention were applied to the recording chamber through a 4-pinch or 8-pinch valve bath perfusion system manufactured by ALA Scientific Instruments.
(§5) Currents were recorded at 40 kHz sampling frequency, filtered at […], and stored using a Digidata-1322A analogue/digital interface with the pClamp software (Axon Instruments). Series resistance compensation was applied (60-80%). […] All statistics in this study are given as mean±SD.
(§6) The membrane potential was maintained at a voltage where inactivation of the channel is complete (which was −60 mV for both NaV1.7 and NaV1.5). The voltage is then stepped back to a very negative (Vhold=[…]) voltage for 20 ms and then a test pulse is applied to quantify the compound block. The 20 ms brief repolarization was long enough for compound-free channels to completely recover from fast inactivation, but the compound-bound channels recovered more slowly such that negligible recovery could occur during this interval. The percent decrease in sodium current following wash-on of compound was taken as the percent block of sodium channels.

NaV1.5 = target: T3, NaV1.5 (Homo sapiens, UniProt Q14524); experiment: Patch voltage clamp electrophysiology assay (EP), NaV1.5 in HEK-293 cells; type: cell-based; details: HEK-293, β1 coexpressed, held at -60 mV (inactivated state)
T3 construct: expression vector containing the full-length cDNA coding for the desired human sodium channel α-subunit; expressed in transfected cells; host or cells: HEK-293
Source text: as §1, §2, §3, §4, §5, §6

T2 sequence (Q15858 1-1977 isoform Q15858-3): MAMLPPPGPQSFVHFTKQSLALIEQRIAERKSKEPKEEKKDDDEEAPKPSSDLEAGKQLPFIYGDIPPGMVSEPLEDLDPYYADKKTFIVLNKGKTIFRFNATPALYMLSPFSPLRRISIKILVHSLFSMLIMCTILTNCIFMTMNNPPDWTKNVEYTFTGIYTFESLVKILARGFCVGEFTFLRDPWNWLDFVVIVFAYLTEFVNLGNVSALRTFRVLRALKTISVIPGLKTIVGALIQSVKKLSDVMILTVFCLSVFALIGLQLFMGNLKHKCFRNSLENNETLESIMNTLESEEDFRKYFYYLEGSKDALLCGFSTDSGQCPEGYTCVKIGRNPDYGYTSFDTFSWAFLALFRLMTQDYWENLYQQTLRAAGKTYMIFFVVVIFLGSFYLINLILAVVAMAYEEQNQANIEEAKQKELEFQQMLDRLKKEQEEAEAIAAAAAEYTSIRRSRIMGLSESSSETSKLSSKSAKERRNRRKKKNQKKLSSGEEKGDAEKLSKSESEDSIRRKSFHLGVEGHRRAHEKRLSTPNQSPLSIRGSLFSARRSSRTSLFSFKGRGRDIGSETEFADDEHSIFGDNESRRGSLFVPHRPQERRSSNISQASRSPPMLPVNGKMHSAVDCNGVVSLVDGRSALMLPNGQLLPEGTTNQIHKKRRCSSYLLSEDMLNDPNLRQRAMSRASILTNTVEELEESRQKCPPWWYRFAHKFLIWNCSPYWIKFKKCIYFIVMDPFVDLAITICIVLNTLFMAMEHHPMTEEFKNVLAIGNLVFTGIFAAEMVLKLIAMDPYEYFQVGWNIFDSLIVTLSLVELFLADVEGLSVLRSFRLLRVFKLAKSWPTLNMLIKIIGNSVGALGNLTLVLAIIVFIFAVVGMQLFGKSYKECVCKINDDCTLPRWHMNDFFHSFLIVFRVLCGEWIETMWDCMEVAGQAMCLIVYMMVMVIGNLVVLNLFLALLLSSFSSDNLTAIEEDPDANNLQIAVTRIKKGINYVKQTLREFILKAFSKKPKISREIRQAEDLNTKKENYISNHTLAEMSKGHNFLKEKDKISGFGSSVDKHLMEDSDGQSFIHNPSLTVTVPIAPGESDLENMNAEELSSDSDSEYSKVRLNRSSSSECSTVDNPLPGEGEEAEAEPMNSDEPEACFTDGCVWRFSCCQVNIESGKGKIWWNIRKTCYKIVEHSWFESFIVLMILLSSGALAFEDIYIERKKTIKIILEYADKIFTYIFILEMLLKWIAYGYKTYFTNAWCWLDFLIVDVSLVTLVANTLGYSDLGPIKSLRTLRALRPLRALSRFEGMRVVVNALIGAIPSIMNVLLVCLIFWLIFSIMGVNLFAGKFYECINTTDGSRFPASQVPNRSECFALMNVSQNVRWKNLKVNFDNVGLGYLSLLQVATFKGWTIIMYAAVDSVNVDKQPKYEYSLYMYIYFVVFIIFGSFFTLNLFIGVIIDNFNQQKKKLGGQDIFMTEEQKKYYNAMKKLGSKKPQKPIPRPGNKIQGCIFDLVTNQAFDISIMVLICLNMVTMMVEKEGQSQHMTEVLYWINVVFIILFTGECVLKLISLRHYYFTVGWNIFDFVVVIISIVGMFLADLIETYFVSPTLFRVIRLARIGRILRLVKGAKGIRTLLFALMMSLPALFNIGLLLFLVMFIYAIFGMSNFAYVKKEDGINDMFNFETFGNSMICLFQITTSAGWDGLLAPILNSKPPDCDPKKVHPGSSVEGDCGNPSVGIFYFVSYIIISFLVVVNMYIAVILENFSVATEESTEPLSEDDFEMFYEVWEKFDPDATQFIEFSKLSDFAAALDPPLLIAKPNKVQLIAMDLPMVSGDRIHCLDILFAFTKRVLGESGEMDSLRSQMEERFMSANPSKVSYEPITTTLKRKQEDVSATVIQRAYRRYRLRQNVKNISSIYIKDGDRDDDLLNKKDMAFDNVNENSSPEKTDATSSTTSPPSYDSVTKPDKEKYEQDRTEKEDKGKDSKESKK
T2 sequence (Q07699 19-218 partner): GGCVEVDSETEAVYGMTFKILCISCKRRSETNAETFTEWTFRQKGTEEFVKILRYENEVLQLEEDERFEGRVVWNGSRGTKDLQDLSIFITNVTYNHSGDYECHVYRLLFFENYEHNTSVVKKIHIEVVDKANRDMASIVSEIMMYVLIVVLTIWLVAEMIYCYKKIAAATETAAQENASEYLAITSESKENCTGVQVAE
T1 sequence (Q15858 1-1977 isoform Q15858-3): as the sequence (Q15858 1-1977 isoform Q15858-3) above
T1 sequence (Q07699 19-218 partner): as the sequence (Q07699 19-218 partner) above
T3 sequence (Q14524 whole entry): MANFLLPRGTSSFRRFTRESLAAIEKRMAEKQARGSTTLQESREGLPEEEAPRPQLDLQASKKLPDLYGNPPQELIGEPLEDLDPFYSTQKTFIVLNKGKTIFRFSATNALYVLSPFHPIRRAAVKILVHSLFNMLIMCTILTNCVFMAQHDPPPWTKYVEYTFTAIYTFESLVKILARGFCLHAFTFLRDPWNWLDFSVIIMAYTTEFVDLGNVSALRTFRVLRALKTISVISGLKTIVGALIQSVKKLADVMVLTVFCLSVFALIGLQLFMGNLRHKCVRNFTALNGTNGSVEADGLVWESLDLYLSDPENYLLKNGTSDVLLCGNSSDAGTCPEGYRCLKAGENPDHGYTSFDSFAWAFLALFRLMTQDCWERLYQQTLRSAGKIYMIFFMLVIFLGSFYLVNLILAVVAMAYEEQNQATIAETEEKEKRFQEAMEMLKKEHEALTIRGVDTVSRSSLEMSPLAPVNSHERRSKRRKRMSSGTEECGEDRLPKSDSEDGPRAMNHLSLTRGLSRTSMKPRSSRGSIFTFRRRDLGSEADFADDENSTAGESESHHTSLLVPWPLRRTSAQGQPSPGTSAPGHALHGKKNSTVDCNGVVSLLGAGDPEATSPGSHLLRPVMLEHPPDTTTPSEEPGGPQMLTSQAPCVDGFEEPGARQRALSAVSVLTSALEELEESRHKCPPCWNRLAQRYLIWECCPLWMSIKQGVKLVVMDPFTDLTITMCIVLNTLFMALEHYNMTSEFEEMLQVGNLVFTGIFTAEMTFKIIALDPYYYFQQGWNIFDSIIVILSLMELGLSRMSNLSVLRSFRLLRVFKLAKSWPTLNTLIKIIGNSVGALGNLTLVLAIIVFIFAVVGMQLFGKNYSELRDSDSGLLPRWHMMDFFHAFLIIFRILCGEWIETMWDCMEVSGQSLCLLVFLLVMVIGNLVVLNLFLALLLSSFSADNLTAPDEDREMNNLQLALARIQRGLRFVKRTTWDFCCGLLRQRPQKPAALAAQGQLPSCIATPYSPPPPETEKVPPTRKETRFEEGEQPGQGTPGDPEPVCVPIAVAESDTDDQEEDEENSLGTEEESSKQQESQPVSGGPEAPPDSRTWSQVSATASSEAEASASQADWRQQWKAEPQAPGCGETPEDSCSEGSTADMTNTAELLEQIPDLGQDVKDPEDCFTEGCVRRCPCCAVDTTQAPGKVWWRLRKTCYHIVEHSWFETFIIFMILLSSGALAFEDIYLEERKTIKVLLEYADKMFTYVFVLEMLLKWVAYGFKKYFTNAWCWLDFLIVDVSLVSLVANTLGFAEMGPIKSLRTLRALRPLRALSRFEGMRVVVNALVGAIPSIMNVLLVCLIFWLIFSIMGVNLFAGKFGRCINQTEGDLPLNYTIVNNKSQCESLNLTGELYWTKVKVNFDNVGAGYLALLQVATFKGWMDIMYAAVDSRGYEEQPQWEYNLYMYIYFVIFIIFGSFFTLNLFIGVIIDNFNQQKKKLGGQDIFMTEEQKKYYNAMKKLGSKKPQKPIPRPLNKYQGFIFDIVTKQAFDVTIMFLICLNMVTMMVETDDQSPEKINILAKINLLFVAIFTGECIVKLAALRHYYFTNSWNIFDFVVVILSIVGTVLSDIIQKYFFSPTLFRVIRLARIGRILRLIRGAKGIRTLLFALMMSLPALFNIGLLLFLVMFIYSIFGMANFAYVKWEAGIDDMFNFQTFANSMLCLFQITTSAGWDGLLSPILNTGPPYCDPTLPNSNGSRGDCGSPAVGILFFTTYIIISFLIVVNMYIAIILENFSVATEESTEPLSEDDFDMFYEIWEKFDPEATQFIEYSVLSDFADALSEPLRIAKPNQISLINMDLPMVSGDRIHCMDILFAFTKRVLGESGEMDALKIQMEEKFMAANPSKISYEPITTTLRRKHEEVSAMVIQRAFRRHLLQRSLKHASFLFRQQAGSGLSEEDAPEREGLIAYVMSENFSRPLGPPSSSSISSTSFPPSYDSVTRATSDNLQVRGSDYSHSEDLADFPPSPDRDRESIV

Row | Compound | IC50 (hNav1.7) | IC50 (NaV1.7) | IC50 (NaV1.5)
1 | Cc1nn(C2CCN(Cc3cc(Cl)ccc3C(F)(F)F)CC2)c2cc(F)c(C(=O)NS(=O)(=O)C3CC3)cc12 [Example 8, 1-(1-(5-chloro-2-(trifluoromethyl)benzyl)piperidin-4-yl)-N-(cyclopropylsulfonyl)-6-fluoro-3-methyl-1H-indazole-5-carboxamide] | 5 nM | 26 nM | 610 nM
2 | Cc1nn(C2CCN([C@H](C)c3cc(Cl)cc(Cl)c3)CC2)c2cc(F)c(C(=O)NS(=O)(=O)C3CC3)cc12 [Example 9, (R)-N-(cyclopropylsulfonyl)-1-(1-(1-(3,5-dichlorophenyl)ethyl)piperidin-4-yl)-6-fluoro-3-methyl-1H-indazole-5-carboxamide] | 6 nM | 46 nM | 8300 nM
3 | Cc1nn(C2CCN([C@@H](C)c3cc(Cl)cc(Cl)c3)CC2)c2cc(F)c(C(=O)NS(=O)(=O)C3CC3)cc12 [Example 10, (S)-N-(cyclopropylsulfonyl)-1-(1-(1-(3,5-dichlorophenyl)ethyl)piperidin-4-yl)-6-fluoro-3-methyl-1H-indazole-5-carboxamide] | 10 nM | 33 nM | 14000 nM
4 | Cc1nn([C@@H]2CCN(Cc3cc(Cl)cc(OC(F)(F)F)c3)C2)c2cc(F)c(C(=O)NS(=O)(=O)C3CC3)cc12 [Example 11, (R)-1-(1-(3-chloro-5-(trifluoromethoxy)benzyl)pyrrolidin-3-yl)-N-(cyclopropylsulfonyl)-6-fluoro-3-methyl-1H-indazole-5-carboxamide 2,2,2-trifluoroacetate] | 13 nM | 23 nM | 800 nM
5 | Cc1nn(C2CCN(c3ccc(Cl)c(C(F)(F)F)n3)CC2)c2cc(F)c(C(=O)NS(=O)(=O)C3CC3)cc12 [Example 13, 1-(1-(5-chloro-6-(trifluoromethyl)pyridin-2-yl)piperidin-4-yl)-N-(cyclopropylsulfonyl)-6-fluoro-3-methyl-1H-indazole-5-carboxamide 2,2,2-trifluoroacetate] | 15 nM | 250 nM | 2400 nM
6 | Cc1nn(C2CN(Cc3cc(Cl)cc(OC(F)(F)F)c3)C2)c2cc(F)c(C(=O)NS(C)(=O)=O)cc12 [Example 14, 1-(1-(3-chloro-5-(trifluoromethoxy)benzyl)azetidin-3-yl)-6-fluoro-3-methyl-N-(methylsulfonyl)-1H-indazole-5-carboxamide] | 32 nM | 400 nM | 13000 nM
7 | Cc1nn([C@@H]2CCN([C@H](C)c3cc(Cl)cc(Cl)c3)C2)c2cc(F)c(C(=O)NS(C)(=O)=O)cc12 [Example 16, 1-((R)-1-((R)-1-(3,5-dichlorophenyl)ethyl)pyrrolidin-3-yl)-6-fluoro-3-methyl-N-(methylsulfonyl)-1H-indazole-5-carboxamide, trifluoroacetic acid salt] | 17 nM | 100 nM | 13000 nM
8 | Cc1nn([C@@H]2CCN([C@@H](C)c3cc(Cl)cc(Cl)c3)C2)c2cc(F)c(C(=O)NS(C)(=O)=O)cc12 [Example 18, 1-((R)-1-((S)-1-(3,5-dichlorophenyl)ethyl)pyrrolidin-3-yl)-6-fluoro-3-methyl-N-(methylsulfonyl)-1H-indazole-5-carboxamide, trifluoroacetic acid salt] | 40 nM | 150 nM | 17000 nM
9 | Cc1nn([C@@H]2CCN([C@@H](C)c3cc(Cl)cc(Cl)c3)C2)c2cc(F)c(C(=O)NS(=O)(=O)C3CC3)cc12 [Example 19, N-(cyclopropylsulfonyl)-1-((R)-1-((S)-1-(3,5-dichlorophenyl)ethyl)pyrrolidin-3-yl)-6-fluoro-3-methyl-1H-indazole-5-carboxamide, trifluoroacetic acid salt] | 12 nM | 41 nM | 6300 nM

Second part, led by results:

Row | IC50 (hNav1.7) | IC50 (NaV1.7) | Compound | IC50 (NaV1.5)
10 | 5 nM | 32 nM | Cc1nn([C@@H]2CCN(Cc3cc(Cl)ccc3C(F)(F)F)C2)c2cc(F)c(C(=O)NS(=O)(=O)C3CC3)cc12 [Example 12, (R)-1-(1-(5-chloro-2-(trifluoromethyl)benzyl)pyrrolidin-3-yl)-N-(cyclopropylsulfonyl)-6-fluoro-3-methyl-1H-indazole-5-carboxamide 2,2,2-trifluoroacetate] | 510 nM
11 | 11 nM | 88 nM | Cc1nn(C2CN(Cc3cc(Cl)cc(OC(F)(F)F)c3)C2)c2cc(F)c(C(=O)NS(=O)(=O)C3CC3)cc12 [Example 15, 1-(1-(3-chloro-5-(trifluoromethoxy)benzyl)azetidin-3-yl)-N-(cyclopropylsulfonyl)-6-fluoro-3-methyl-1H-indazole-5-carboxamide] | 3200 nM
12 | 6 nM | 45 nM | Cc1nn([C@@H]2CCN([C@H](C)c3cc(Cl)cc(Cl)c3)C2)c2cc(F)c(C(=O)NS(=O)(=O)C3CC3)cc12 [Example 17, N-(cyclopropylsulfonyl)-1-((R)-1-((R)-1-(3,5-dichlorophenyl)ethyl)pyrrolidin-3-yl)-6-fluoro-3-methyl-1H-indazole-5-carboxamide 2,2,2-trifluoroacetate] | 880 nM
13 | 10 nM | 62 nM | Cc1nn([C@@H]2CCN(Cc3ccc(Cl)cc3C(F)(F)F)C2)c2cc(F)c(C(=O)NS(=O)(=O)C3CC3)cc12 [Example 20, (R)-1-(1-(4-chloro-2-(trifluoromethyl)benzyl)pyrrolidin-3-yl)-N-(cyclopropylsulfonyl)-6-fluoro-3-methyl-1H-indazole-5-carboxamide, trifluoroacetic acid salt] | 580 nM
